# Target: T1, hP2X3 (human Purinergic P2X receptors subtype 3), clone A (Homo sapiens, UniProt P56373)
# T1 sequence (P56373 1-397): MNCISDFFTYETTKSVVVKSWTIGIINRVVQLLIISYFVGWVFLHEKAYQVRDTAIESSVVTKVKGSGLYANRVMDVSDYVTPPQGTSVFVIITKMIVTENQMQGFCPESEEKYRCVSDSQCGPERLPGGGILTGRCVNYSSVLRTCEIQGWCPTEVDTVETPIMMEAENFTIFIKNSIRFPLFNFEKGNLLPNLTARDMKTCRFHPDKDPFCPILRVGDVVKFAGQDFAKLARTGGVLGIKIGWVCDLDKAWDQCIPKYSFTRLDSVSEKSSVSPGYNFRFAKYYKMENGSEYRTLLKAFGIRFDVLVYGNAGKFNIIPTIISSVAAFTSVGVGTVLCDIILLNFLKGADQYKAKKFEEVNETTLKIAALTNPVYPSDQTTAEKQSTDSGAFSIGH
# Experiment: hP2X3 FLIPR calcium (Fluo-4) antagonist assay, clone A
# Details: Human P2X3 FLIPR Clone A Mean IC50 (nM), RLE cells expressing hP2X3 clone A (AB016608); agonist 500 nM α,β-methylene-ATP
# Description: The assay used a calcium indicator dye (Fluo-4) that emits fluorescence, the intensity of which is related to the concentration of calcium that entered the cell when P2X3 was activated and the channel opened. Activation of hP2X3 or rat P2X3 and rat P2X2/3 (from the coexpression of rat P2X3 and rat P2×2) is elicited the by P2X3 agonist α,β methylene-ATP (Sigma M6517), and the resulting fluorescence is measured with a FLIPR II™ instrument (Molecular Devices). Compounds are tested for their ability to inhibit the agonist-induced fluorescent signal.
# For the rat P2X2/3 HEK-TREX cells, induction of the rat P2X3 expression is used to generate the rat P2X2/3 channels in HEK-TREX cells and performed by addition of 1 μg/mL tetracycline (Invitrogen) 24 h prior to compounds testing to the HEK-TREX expressing the rat P2X2 constitutively. On the day of the experiment, the cells and test compounds are prepared as follows. […] After preparing the compounds, the medium is removed from the cell plates by inversion. A loading solution of 30 μL assay buffer containing 4 μM of the calcium indicator dye FLUO-4 AM (Molecular Probes F14202) is added to each well using a Multidrop (Labsystems). […] The incubation is terminated by washing the cells four times in assay buffer using a Skatron Embla (Molecular Devices), and 25 μL of assay buffer was left in each well. Cell plates are then transferred to the FLIPR. Experiments are initiated by measuring a baseline fluorescence reading for 10 seconds, followed by the addition of 12.5 μL of cpds and data sampling for a total 280 seconds. The experiments are terminated by addition of 12.5 μL of a reference agonist (500 nM α,β-methylene-ATP) or buffer, producing a final assay volume of 50 μL followed by data sampling for an additional 280 seconds.
# In P2X3 antagonist experiments (human and rat assays) data are analysed as normalised maximal peak fluorescence monitored following agonist addition and calculated as percent of relative fluorescent counts from control agonist. The dose-response antagonist inhibition curves are analyzed in a 4-parameter sigmoidal fit using a non-linear curve-fitting program (XLfit version 5.0.6, ID Business Solutions Limited, Guildford, UK).
row,IC50 [nM],Structure (SMILES)
1,83.2,"CCN(c1nc(N2CCN(C(C)=O)CC2)nc2c1CN(C(C)C)C2=O)C(C)c1ccc2ncccc2c1 (single isomer, unassigned) [Example 257, 2-(4-acetylpiperazin-1-yl)-4-(ethyl(1-(quinolin-6-yl)ethyl)amino)-6-isopropyl-5H-pyrrolo[3,4-d]pyrimidin-7(6H)-one]"
2,195,"CCOc1ncc([C@@H](C)Nc2nc(N3CCN(C(C)=O)CC3)nc3c2CN(C(C)C)C3=O)cc1C [Example 331, (R)-2-(4-acetylpiperazin-1-yl)-4-(1-(6-ethoxy-5-methylpyridin-3-yl)ethylamino)-6-isopropyl-5H-pyrrolo[3,4-d]pyrimidin-7(6H)-one]"
3,> 30000,"CC(=O)N1CCN(c2nc(N[C@H](C)c3ccc(CO)cc3)c3c(n2)C(=O)N(C(C)C)C3)CC1 [Example 332, (R)-2-(4-acetylpiperazin-1-yl)-4-(1-(4-(hydroxymethyl)phenyl)ethylamino)-6-isopropyl-5H-pyrrolo[3,4-d]pyrimidin-7(6H)-one]"
4,2970,"CCOc1ccc(CN(C)c2nc(N3CCN(C(C)=O)CC3)nc3c2CN(C(C)C)C3=O)c(OC)c1 [Example 334, 2-(4-acetylpiperazin-1-yl)-4-((4-ethoxy-2-methoxybenzyl)(methyl)amino)-6-isopropyl-5H-pyrrolo[3,4-d]pyrimidin-7(6H)-one]"
5,225,"CCOc1ccc(CNc2nc(N3CCN(C(C)=O)CC3)nc3c2CN(C(C)C)C3=O)c(OC)c1 [Example 335, 2-(4-acetylpiperazin-1-yl)-4-(4-ethoxy-2-methoxybenzylamino)-6-isopropyl-5H-pyrrolo[3,4-d]pyrimidin-7(6H)-one]"
6,1610,"CCOc1cc(OC)ccc1CN(C)c1nc(N2CCN(C(C)=O)CC2)nc2c1CN(C(C)C)C2=O [Example 336, 2-(4-acetylpiperazin-1-yl)-4-((2-ethoxy-4-methoxybenzyl)(methyl)amino)-6-isopropyl-5H-pyrrolo[3,4-d]pyrimidin-7(6H)-one]"
7,79.5,"COc1cc(OC(C)C)ccc1CNc1nc(N2CCN(C(C)=O)CC2)nc2c1CN(C(C)C)C2=O [Example 337, 2-(4-acetylpiperazin-1-yl)-4-(4-isopropoxy-2-methoxybenzylamino)-6-isopropyl-5H-pyrrolo[3,4-d]pyrimidin-7(6H)-one]"
8,2640,"COCc1ccc([C@@H](C)Nc2nc(N3CCN(C(C)=O)CC3)nc3c2CN(C(C)C)C3=O)cc1F [Example 338, 2-(4-acetylpiperazin-1-yl)-4-({(1R)-1-[3-fluoro-4-(methoxymethyl)phenyl]ethyl}amino)-6-(1-methylethyl)-5,6-dihydro-7H-pyrrolo[3,4-d]pyrimidin-7-one]"
9,2280,"CC(=O)N1CCN(c2nc3c(c(N(C)Cc4cnn(-c5ccc(F)cc5)c4)n2)CN(C(C)C)C3=O)CC1 [Example 339, 2-(4-acetylpiperazin-1-yl)-4-[{[1-(4-fluorophenyl)-1H-pyrazol-4-yl]methyl}(methyl)amino]-6-(1-methylethyl)-5,6-dihydro-7H-pyrrolo[3,4-d]pyrimidin-7-one]"
10,2710,"CC(C)N1Cc2c(NC(C)(C)Cc3ccc(F)cc3)nc(N3CCn4ccnc4C3)nc2C1=O [Example 340, 2-(5,6-dihydroimidazo[1,2-a]pyrazin-7(8H)-yl)-4-{[2-(4-fluorophenyl)-1,1-dimethylethyl]amino}-6-(1-methylethyl)-5,6-dihydro-7H-pyrrolo[3,4-d]pyrimidin-7-one]"
11,29.2,"CC(=O)N1CCN(c2nc3c(c(N(C)Cc4cc5ccc(Cl)cc5cn4)n2)CN(C(C)C)C3=O)CC1 [Example 341, 2-(4-acetylpiperazin-1-yl)-4-(((7-chloroisoquinolin-3-yl)methyl)(methyl)amino)-6-isopropyl-5H-pyrrolo[3,4-d]pyrimidin-7(6H)-one]"
12,1230,"CC(=O)N1CCN(c2nc3c(c(N(C)Cc4cc5cc(C)ccc5cn4)n2)CN(C(C)C)C3=O)CC1 [Example 342, 2-(4-acetylpiperazin-1-yl)-6-isopropyl-4-(methyl((6-methylisoquinolin-3-yl)methyl)amino)-5H-pyrrolo[3,4-d]pyrimidin-7(6H)-one]"
13,2720,"CC(=O)N1CCN(c2nc3c(c(N(C)Cc4cc5cc(Cl)ccc5cn4)n2)CN(C(C)C)C3=O)CC1 [Example 348, 2-(4-acetylpiperazin-1-yl)-4-(((6-chloroisoquinolin-3-yl)methyl)(methyl)amino)-6-isopropyl-5H-pyrrolo[3,4-d]pyrimidin-7(6H)-one]"
14,1050,"CC(=O)N1CCN(c2nc3c(c(N(C)Cc4cc5cc(F)ccc5cn4)n2)CN(C(C)C)C3=O)CC1 [Example 349, 2-(4-acetylpiperazin-1-yl)-4-(((6-fluoroisoquinolin-3-yl)methyl)(methyl)amino)-6-isopropyl-5H-pyrrolo[3,4-d]pyrimidin-7(6H)-one]"
15,29.9,"CC(=O)N1CCN(c2nc3c(c(N(C)Cc4cc5ccc(F)cc5cn4)n2)CN(C(C)C)C3=O)CC1 [Example 350, 2-(4-acetylpiperazin-1-yl)-4-(((7-fluoroisoquinolin-3-yl)methyl)(methyl)amino)-6-isopropyl-5H-pyrrolo[3,4-d]pyrimidin-7(6H)-one]"
16,61.1,"CC(=O)N1CCN(c2nc3c(c(N(C)Cc4cc5ccc(C)cc5cn4)n2)CN(C(C)C)C3=O)CC1 [Example 353, 2-(4-acetylpiperazin-1-yl)-6-isopropyl-4-(methyl((7-methylisoquinolin-3-yl)methyl)amino)-5H-pyrrolo[3,4-d]pyrimidin-7(6H)-one]"
17,494,"CC(=O)N1CCN(c2nc(NCc3ccc4c(ccn4C)c3)c3c(n2)C(=O)N(C(C)C)C3)CC1 [Example 354, 2-(4-acetylpiperazin-1-yl)-6-(1-methylethyl)-4-{[(1-methyl-1H-indol-5-yl)methyl]amino}-5,6-dihydro-7H-pyrrolo[3,4-d]pyrimidin-7-one]"
18,5760,"CC(=O)N1CCN(c2nc3c(c(N(C)Cc4ccc5ccn(C)c5c4)n2)CN(C(C)C)C3=O)CC1 [Example 355, 2-(4-acetylpiperazin-1-yl)-6-(1-methylethyl)-4-{methyl[(1-methyl-1H-indol-6-yl)methyl]amino}-5,6-dihydro-7H-pyrrolo[3,4-d]pyrimidin-7-one]"
19,1060,"CC(=O)N1CCN(c2nc(NCc3ccc4ccn(C)c4c3)c3c(n2)C(=O)N(C(C)C)C3)CC1 [Example 356, 2-(4-acetylpiperazin-1-yl)-6-(1-methylethyl)-4-{[(1-methyl-1H-indol-6-yl)methyl]amino}-5,6-dihydro-7H-pyrrolo[3,4-d]pyrimidin-7-one]"
20,163,"CCOc1ccc([C@@H](C)Nc2nc(N3CCN(C(C)=O)CC3)nc3c2CN(C(C)C)C3=O)c(OCC)c1 [Example 357, (R)-2-(4-acetylpiperazin-1-yl)-4-(1-(2,4-diethoxyphenyl)ethylamino)-6-isopropyl-5H-pyrrolo[3,4-d]pyrimidin-7(6H)-one]"
21,> 30000,"CC(=O)N1CCN(c2nc(N[C@H](C)c3ccc(CN(C)C)cc3)c3c(n2)C(=O)N(C(C)C)C3)CC1 [Example 358, (R)-2-(4-acetylpiperazin-1-yl)-4-(1-(4-((dimethylamino)methyl)phenyl)ethylamino)-6-isopropyl-5H-pyrrolo[3,4-d]pyrimidin-7(6H)-one]"
22,511,"CC(=O)N1CCN(c2nc(N[C@H](C)c3ccc4c(c3)OC(F)(F)O4)c3c(n2)C(=O)N(C(C)C)C3)CC1 [Example 359, (R)-2-(4-acetylpiperazin-1-yl)-4-(1-(2,2-difluorobenzo[d][1,3]dioxol-5-yl)ethylamino)-6-isopropyl-5H-pyrrolo[3,4-d]pyrimidin-7(6H)-one]"
23,> 30000,"CC(=O)N1CCN(c2nc3c(c(N(C)Cc4ccc5c(c4)OC(F)(F)O5)n2)CN(C(C)C)C3=O)CC1 [Example 360, 2-(4-acetylpiperazin-1-yl)-4-(((2,2-difluorobenzo[d][1,3]dioxol-5-yl)methyl)(methyl)amino)-6-isopropyl-5H-pyrrolo[3,4-d]pyrimidin-7(6H)-one]"
24,327,"CCOc1ccc([C@@H](C)Nc2nc(N3CCN(CC)C(=O)C3)nc3c2CN(C(C)C)C3=O)cc1 [Example 361, (R)-4-(1-(4-ethoxyphenyl)ethylamino)-2-(4-ethyl-3-oxopiperazin-1-yl)-6-isopropyl-5H-pyrrolo[3,4-d]pyrimidin-7(6H)-one]"
25,356,"CCN1CCN(c2nc3c(c(N(C)Cc4cc5ccccc5cn4)n2)CN(C(C)C)C3=O)CC1=O [Example 362, 2-(4-ethyl-3-oxopiperazin-1-yl)-6-isopropyl-4-((isoquinolin-3-ylmethyl)(methyl)amino)-5H-pyrrolo[3,4-d]pyrimidin-7(6H)-one]"
26,574,"CCOc1ccc([C@@H](C)Nc2nc(N3CCN(CC(F)(F)F)C(=O)C3)nc3c2CN(C(C)C)C3=O)cc1 [Example 363, (R)-4-(1-(4-ethoxyphenyl)ethylamino)-6-isopropyl-2-(3-oxo-4-(2,2,2-trifluoroethyl)piperazin-1-yl)-5H-pyrrolo[3,4-d]pyrimidin-7(6H)-one]"
27,795,"CC(C)N1Cc2c(nc(N3CCN(CC(F)(F)F)C(=O)C3)nc2N(C)Cc2cc3ccccc3cn2)C1=O [Example 364, 6-isopropyl-4-((isoquinolin-3-ylmethyl)(methyl)amino)-2-(3-oxo-4-(2,2,2-trifluoroethyl)piperazin-1-yl)-5H-pyrrolo[3,4-d]pyrimidin-7(6H)-one]"

# Target: T2, hP2X3 (human Purinergic P2X receptors subtype 3), clone B (Homo sapiens, UniProt P56373)
# T2 sequence (P56373 1-397): T1 sequence (P56373 1-397)
# Experiment: hP2X3 FLIPR calcium (Fluo-4) antagonist assay, clone B
# Details: Human P2X3 FLIPR Clone B IC50 (nM), RLE cells expressing hP2X3 clone B (NM_002559); agonist 500 nM α,β-methylene-ATP
row,IC50 [nM],Structure (SMILES)
1,80,"CCN(c1nc(N2CCN(C(C)=O)CC2)nc2c1CN(C(C)C)C2=O)C(C)c1ccc2ncccc2c1 (single isomer, unassigned) [Example 257, 2-(4-acetylpiperazin-1-yl)-4-(ethyl(1-(quinolin-6-yl)ethyl)amino)-6-isopropyl-5H-pyrrolo[3,4-d]pyrimidin-7(6H)-one]"

# From US20090099195A1 (ASTRAZENECA AB, priority 2007, published 2009)
